One may read the inhibition as the relative decrease from the control value, in per cent.

Holding throughout (type): in vivo
Test [1] concerns barnyardgrass (Echinochloa crus-galli L.). In words: Test Example 1: foliar treatment, upland pot test, barnyardgrass. As to conditions: 31 g/ha active ingredient, observed 17th to 25th day after application; for inhibition at 31 g/ha: Echinochloa crus-galli, read-out: Growth inhibition rate (%) Barnyardgrass. From the text: (§1) Upland field soil was put into a 1/170,000 hectare pot, and seeds of various plants were sown. When the respective plants reached predetermined leaf stage ((1) barnyardgrass (Echinochloa crus-galli L.): 1.0 to 3.0 leaf stage, (2) crabgrass (Digitaria sanguinalis L.): 1.0 to 3.0 leaf stage, (3) green foxtail (Setaria viridis L.): 1.0 to 3.0 leaf stage, (4) redroot pigweed (Amaranthus retroflexus L.): cotyledon stage to 2.0 leaf stage, (5) prickly sida (Sida spinosa L.): cotyledon stage to 1.0 leaf stage, (6) velvetleaf (Abutilon theophrasti MEDIC.): 0.1 to 1.5 leaf stage, (7) rice (Oryza sativa L.): 1.0 to 3.0 leaf stage, (8) wheat (Triticum spp.): 1.7 to 3.4 leaf stage, (9) corn (Zea mays L.): 2.0 to 3.5 leaf stage, (10) soybean (Glycine max Merr.): primary leaf stage to 0.4 leaf stage), wettable powders or emulsifiable concentrates of the compounds of the above formula (I) prepared in accordance with a conventional preparation method, were weighed so that the active ingredients became the prescribed amounts, and diluted with water in an amount corresponding to 500 liter per 1 hectare (containing 0.1 vol % of “KUSARINOH”, manufactured by NIHON NOHYAKU CO., LTD. as an agricultural spreader). The spray solutions thus prepared were applied for foliar treatment by a small sprayer.
(§2) On the 17th to 25th day after application, the state of growth of the respective plants was visually observed, and the herbicidal effect was evaluated by a growth inhibition rate (%) of 0 (equivalent to the non-treated area) to 100% (complete kill).

The test system of test [2] is green foxtail (Setaria viridis L.). The experiment in a line: Test Example 1: foliar treatment, upland pot test, green foxtail. Conditions: 31 g/ha active ingredient, observed 17th to 25th day after application; for inhibition at 31 g/ha: Setaria viridis, read-out: Growth inhibition rate (%) Green foxtail.
Text: as §1, §2

For test [3], the system named is wheat (Triticum spp.). The experiment in a line: Test Example 1: foliar treatment, upland pot test, wheat. As to conditions: 31 g/ha active ingredient, observed 17th to 25th day after application; for inhibition at 31 g/ha: Triticum, read-out: Growth inhibition rate (%) Wheat.
Text: as §1, §2

The subject of test [4] is redroot pigweed (Amaranthus retroflexus L.). The experiment in a line: Test Example 1: foliar treatment, upland pot test, redroot pigweed. As to conditions: 31 g/ha active ingredient, observed 17th to 25th day after application; for inhibition at 31 g/ha: Amaranthus retroflexus, read-out: Growth inhibition rate (%) Redroot pigweed.
Text: as §1, §2

In test [5] the test system is crabgrass (Digitaria sanquinalis L.). In words: Test Example 2: soil application on the day after sowing, crabgrass. As to conditions: 250 g/ha active ingredient, observed 19th to 28th day after application; for inhibition at 250 g/ha: Digitaria, read-out: Growth inhibition rate (%) Crabgrass. The source says: (§3) Upland field soil was put into a 1/170,000 hectare pot, and seeds of various plants barnyardgrass (Echinochloa crus-galli L.), crabgrass (Digitaria sanquinalis L.), green foxtail (Setaria viridis L.), redroot pigweed (Amaranthus retroflexus L.), prickly sida (Sida spinosa L.), velvetleaf (Abutilon theophrasti MEDIC.), rice (Oryza sativa L.), wheat (Triticum spp.), corn (Zea mays L.) and soybean (Glycine max Merr.)) were sown. On the day after sowing, wettable powders or emulsifiable concentrates of the compounds of the above formula (I) prepared in accordance with a conventional preparation method, were weighed so that the active ingredients became the prescribed amounts, and diluted with water in an amount corresponding to 500 liter per 1 hectare, followed by soil application with a small sprayer.
(§4) On the 19th to 28th day after the application, the state of growth of the respective plants was visually observed, and the herbicidal effect was evaluated by a growth inhibition rate (%) of from 0 (equivalent to the non-treated area) to 100% (complete kill).

Test [6] deals with corn (Zea mays L.). In words: Test Example 1: foliar treatment, upland pot test, corn. Conditions: 31 g/ha active ingredient, observed 17th to 25th day after application; for inhibition at 31 g/ha: Zea mays, read-out: Growth inhibition rate (%) Corn.
Text: as §1, §2

For test [7], the system named is velvetleaf (Abutilon theophrasti MEDIC.). In words: Test Example 1: foliar treatment, upland pot test, velvetleaf. As to conditions: 31 g/ha active ingredient, observed 17th to 25th day after application; for inhibition at 31 g/ha: Abutilon theophrasti, read-out: Growth inhibition rate (%) Velvetleaf.
Text: as §1, §2

The subject of test [8] is prickly sida (Sida spinosa L.). The experiment in a line: Test Example 1: foliar treatment, upland pot test, prickly sida. As to conditions: 31 g/ha active ingredient, observed 17th to 25th day after application; for inhibition at 31 g/ha: Sida spinosa, read-out: Growth inhibition rate (%) Prickly sida.
Text: as §1, §2

For test [9], the system named is crabgrass (Digitaria sanguinalis L.). The experiment in a line: Test Example 1: foliar treatment, upland pot test, crabgrass. As to conditions: 31 g/ha active ingredient, observed 17th to 25th day after application; for inhibition at 31 g/ha: Digitaria sanguinalis, read-out: Growth inhibition rate (%) Crabgrass.
Text: as §1, §2

Test [10] deals with rice (Oryza sativa L.). In words: Test Example 1: foliar treatment, upland pot test, rice. As to conditions: 31 g/ha active ingredient, observed 17th to 25th day after application; for inhibition at 31 g/ha: Oryza sativa, read-out: Growth inhibition rate (%) Rice.
Text: as §1, §2

Test [11] has as its system barnyardgrass (Echinochloa crus-galli L.). In words: Test Example 2: soil application on the day after sowing, barnyardgrass. Conditions: 250 g/ha active ingredient, observed 19th to 28th day after application; for inhibition at 250 g/ha: Echinochloa crus-galli, read-out: Growth inhibition rate (%) Barnyardgrass.
Text: as §3, §4

The test system of test [12] is rice (Oryza sativa L.). The experiment in a line: Test Example 2: soil application on the day after sowing, rice. As to conditions: 250 g/ha active ingredient, observed 19th to 28th day after application; for inhibition at 250 g/ha: Oryza sativa, read-out: Growth inhibition rate (%) Rice.
Text: as §3, §4

Test [13] deals with velvetleaf (Abutilon theophrasti MEDIC.). In words: Test Example 2: soil application on the day after sowing, velvetleaf. Conditions: 250 g/ha active ingredient, observed 19th to 28th day after application; for inhibition at 250 g/ha: Abutilon theophrasti, read-out: Growth inhibition rate (%) Velvetleaf.
Text: as §3, §4

In test [14] the test system is green foxtail (Setaria viridis L.). The experiment in a line: Test Example 2: soil application on the day after sowing, green foxtail. Conditions: 250 g/ha active ingredient, observed 19th to 28th day after application; for inhibition at 250 g/ha: Setaria viridis, read-out: Growth inhibition rate (%) Green foxtail.
Text: as §3, §4

Test [15] concerns wheat (Triticum spp.). The experiment in a line: Test Example 2: soil application on the day after sowing, wheat. As to conditions: 250 g/ha active ingredient, observed 19th to 28th day after application; for inhibition at 250 g/ha: Triticum, read-out: Growth inhibition rate (%) Wheat.
Text: as §3, §4

The subject of test [16] is prickly sida (Sida spinosa L.). The experiment in a line: Test Example 2: soil application on the day after sowing, prickly sida. As to conditions: 250 g/ha active ingredient, observed 19th to 28th day after application; for inhibition at 250 g/ha: Sida spinosa, read-out: Growth inhibition rate (%) Prickly sida.
Text: as §3, §4

Test [17] has as its system corn (Zea mays L.). In words: Test Example 2: soil application on the day after sowing, corn. As to conditions: 250 g/ha active ingredient, observed 19th to 28th day after application; for inhibition at 250 g/ha: Zea mays, read-out: Growth inhibition rate (%) Corn.
Text: as §3, §4

For test [18], the system named is redroot pigweed (Amaranthus retroflexus L.). The experiment in a line: Test Example 2: soil application on the day after sowing, redroot pigweed. As to conditions: 250 g/ha active ingredient, observed 19th to 28th day after application; for inhibition at 250 g/ha: Amaranthus retroflexus, read-out: Growth inhibition rate (%) Redroot pigweed.
Text: as §3, §4

The subject of test [19] is soybean (Glycine max Merr.). The experiment in a line: Test Example 2: soil application on the day after sowing, soybean. Conditions: 250 g/ha active ingredient, observed 19th to 28th day after application; for inhibition at 250 g/ha: Glycine max, read-out: Growth inhibition rate (%) Soybean.
Text: as §3, §4

Test [20] concerns soybean (Glycine max Merr.). In words: Test Example 1: foliar treatment, upland pot test, soybean. As to conditions: 31 g/ha active ingredient, observed 17th to 25th day after application.
Text: as §1, §2

For the molecule `COC(=O)c1c(S(C)(=O)=O)ccc(C(=O)c2cnn(C)c2O)c1C` [compound 126], the inhibition at 31 g/ha was determined as 95% in [1]; 100% in test [2]; 0% in test [3]; 100% in test [4]; 5% in test [6]; 100% in test [7]. In addition, the results for the inhibition at 31 g/ha in test [8], in test [9] and in test [10] were 90%, 80% and 100%, respectively. Besides, the inhibition at 250 g/ha was 100% in [5]; 90% in [11]; 95% in [12]; 70% in test [13]; 70% in [14]; 10% in test [15]. Moreover, the inhibition at 250 g/ha in test [16] stood at 70%; in [17], 0%; in test [18], 100%; in test [19], 60%.
As to `CCn1ncc(C(=O)c2ccc(S(C)(=O)=O)c(C(=O)OC)c2C)c1O` [compound 127], the inhibition at 31 g/ha in test [1] was determined as 90%; in test [2] it was 90%; in test [3], 0%; in [4], 100%; in [6], 40%; in test [7] it was 100%. Also, the values for the inhibition at 31 g/ha in test [8], in [9] and in test [10] were 80%, 90% and 90%, respectively. For the same molecule, the inhibition at 250 g/ha in test [5] was 100%; in test [11], 85%; in [12] it was 70%; in test [13], 70%; in test [14], 100%; in test [15] it was 10%. Moreover, the inhibition at 250 g/ha came out at 60% in test [16], 0% in test [17], 100% in test [18] and 50% in [19].
Consider `CCOc1c(S(C)(=O)=O)ccc(C(=O)c2cnn(C)c2O)c1C` [compound 144], for which the inhibition at 31 g/ha came to 98% in [1]; 100% in test [2]; 20% in test [3]; 100% in [4]; 10% in [6]; 100% in test [7]. The inhibition at 31 g/ha in [8] came out at 100%; in test [9], 95%; in [10], 75%. Also, the inhibition at 250 g/ha worked out at 100% in [5]; 80% in [11]; 70% in [12]; 50% in [13]; 70% in test [14]; 0% in test [15]. In addition, the inhibition at 250 g/ha is 50% in test [16], 0% in [17], 75% in test [18] and 0% in test [19].
Regarding `COCC(C)Oc1c(S(C)(=O)=O)ccc(C(=O)c2cnn(C)c2O)c1C` (centres unmarked) [compound 254], the “Growth inhibition rate (%) Barnyardgrass” value in test [1] came to 40%; in [11] it was 100%. Moreover, the “Growth inhibition rate (%) Green foxtail” value came out at 50% in [2] and 10% in test [14]. Further, the “Growth inhibition rate (%) Wheat” value in [3] was found to be 0%. For the same molecule, the “Growth inhibition rate (%) Redroot pigweed” value was 95% in test [4] and 100% in test [18]. For the same molecule, the “Growth inhibition rate (%) Crabgrass” value came to 98% in test [5] and 50% in test [9]. Further, the “Growth inhibition rate (%) Corn” value in test [6] and in test [17] was 0% each time. Further, the “Growth inhibition rate (%) Velvetleaf” value in test [7] was 80%; in test [13], 50%. Also, the “Growth inhibition rate (%) Prickly sida” value in test [8] is 40%; in test [16], 60%. Moreover, the “Growth inhibition rate (%) Rice” value in test [10] is given as 40%; in test [12], 75%. Further, the “Growth inhibition rate (%) Soybean” value in test [20] is reported as 80%; in test [19], 0%.
On to `COCCOc1c(S(C)(=O)=O)ccc(C(=O)c2c(C)nn(C(C)C)c2O)c1C` [compound 260], for which the “Growth inhibition rate (%) Barnyardgrass” value in test [1] stood at 95%; in test [11] it was 100%. The figures for the “Growth inhibition rate (%) Green foxtail” value in [2] and in [14] were 70% and 100%, respectively. The “Growth inhibition rate (%) Wheat” value in test [3] is 0%; in test [15] it was 20%. The “Growth inhibition rate (%) Redroot pigweed” value in [4] was 90%; in test [18] it was 100%. In addition, the “Growth inhibition rate (%) Crabgrass” value in test [5] is on record as 100%; in [9], 80%. For the same molecule, the “Growth inhibition rate (%) Corn” value in test [6] was found to be 0%; in test [17], 60%. Besides, the “Growth inhibition rate (%) Velvetleaf” value in test [7] and in test [13] was 70% throughout. Moreover, the “Growth inhibition rate (%) Prickly sida” value in test [8] came to 30%; in test [16], 60%. In addition, the “Growth inhibition rate (%) Rice” value in test [10] was determined as 70%; in test [12] it was 100%. For the same molecule, in test [20], the “Growth inhibition rate (%) Soybean” value stood at 40%.

Values taken from patent US20100317528A1, “HERBICIDE CONTAINING BENZOYLPYRAZOLE COMPOUND” (ISHIHARA SANGYO KAISHA, LTD., priority 2006, published 2010).
